Test results: US20070117864A1, “Composition for preventing and treating hepatoma” (Tokyo University of Agr. & Tech. TLO Co., Ltd., priority 2003, published 2007)
Marks after values point to notes of the source that are not given here.

Legend:
[1] = serum lipid peroxide levels (TBARS) in hepatoma-bearing rats; assay type: in vivo, rat; settings: mean ± SEM of 11 rats
Procedure: Male Donryu rats of four weeks old were purchased from NRC Haruna, Gumma, Japan, and were preliminarily fed for 6 days in quintuple cages in a room with a controlled environment with light period of 8:00 to 20:00, room temperature of 22±1° C., and relative humidity of 60±5%. For the first 3 days, the animals were fed ad libitum with a stock pellet diet (CE-2; CLEA Japan, Tokyo), and for the next 3 days, they were fed a basal diet containing 20% milk casein (20C) (Table 1) ad libitum together with tap water in a glass container. Following the completion of this preparatory raising, the rats were divided into three groups (11 animals per group) with equal average body weights of the respective groups were equal, and 1.0×10^7 of AH109A cells suspended in PBS (−) were transplanted in the back of all the rats. From the time immediately after transplantation, in the respective experimental groups, the animals were fed the experimental diets shown in Table 2. During the experimental period, the body weight, food intake and solid tumor size (sum of length, width and height) were measured everyday. […] LPO levels were determined by measuring thiobarbituric acid-reactive substances (TBARS) by the Yagi fluorescence method using a lipid peroxide test Wako (Wako Pure Chemical Industries).

AH109A cells = assay: solid tumor growth and metastasis in hepatoma-bearing rats fed ENL-supplemented diets; assay type: in vivo, rat; settings: for Total number of metastasis/group / Hepatoma weight: 21 days; for Hepatoma weight: mean ± SEM of 11 rats
Procedure: Male Donryu rats of four weeks old were purchased from NRC Haruna, Gumma, Japan, and were preliminarily fed for 6 days in quintuple cages in a room with a controlled environment with light period of 8:00 to 20:00, room temperature of 22±1° C., and relative humidity of 60±5%. For the first 3 days, the animals were fed ad libitum with a stock pellet diet (CE-2; CLEA Japan, Tokyo), and for the next 3 days, they were fed a basal diet containing 20% milk casein (20C) (Table 1) ad libitum together with tap water in a glass container. Following the completion of this preparatory raising, the rats were divided into three groups (11 animals per group) with equal average body weights of the respective groups were equal, and 1.0×10^7 of AH109A cells suspended in PBS (−) were transplanted in the back of all the rats. From the time immediately after transplantation, in the respective experimental groups, the animals were fed the experimental diets shown in Table 2. During the experimental period, the body weight, food intake and solid tumor size (sum of length, width and height) were measured everyday. On the day that the animals were killed, animals were deprived of experimental diets at 9:00, but freely given water until they were killed 4 hours later. Blood was collected from carotid, and the liver and solid tumors were excised. The collected blood was allowed to stand for approximately 2 hours at room temperature, and then centrifuged for 10 minutes at 3000 rpm (1750×g), 4° C., to obtain serum. This blood serum was frozen and stored at −20° C. The livers and solid tumors were washed with physiological saline, blotted on filter paper, and weighed. Furthermore, feces from the 19th to 21st days after transplantation were collected, and these feces were frozen and stored at −20° C. for the measurement of the amounts of steroids excreted from the body. The length, width and height of the solid tumors were measured, and the sums of these values were used as an index of solid tumor size.

**Q.** Which “Serum TBARS” value ([1]; diet 10 ppm) does the source give for O=C1OCC(Cc2cccc(O)c2)C1Cc1cccc(O)c1 (stereo not drawn) [Enterolactone, enterolactone] here?
**A.** 7.31 ± 0.37 nmol/mL

**Q.** What about the “Serum TBARS” value ([1]; diet 100 ppm) of the same compound?
**A.** 6.87 ± 0.51 nmol/mL

**Q.** What about the “solid tumor sizes (sum of length, width and height)” value (AH109A cells; 100 ppm ENL diet, 7th, 8th and 18th to 21 days after transplantation, versus control diet) of the same compound?
**A.** significant suppression

**Q.** What about the “metastasis over 21 days following transplantation” value (AH109A cells; ENL diet groups (10 and 100 ppm)) of the same compound?
**A.** no metastasis was observed

**Q.** And the solid tumor weight (AH109A cells; both ENL ingestion groups versus control)?
**A.** significant decrease

**Q.** And the “Total number of metastasis/group” value (AH109A cells; diet 10 ppm)?
**A.** 0

**Q.** And the Hepatoma weight (AH109A cells; diet 10 ppm)?
**A.** 3.4 ± 1^b g/rat

**Q.** And the “Total number of metastasis/group” value (AH109A cells; diet 100 ppm)?
**A.** 0

**Q.** What about the Hepatoma weight (AH109A cells; diet 100 ppm) of the same compound?
**A.** 1.1 ± 0.2^b g/rat
